Assay results taken from PubChem BioAssay (NCI).
Values joined by “and” are separate entries in the source; they are usually repeats but may differ in a detail not shown here. Equal entries are not always repeated.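 Five concentrations, 48 hours, 96-well plates. GI50: concentration for 50% inhibition of growth. TGI marks complete inhibition of growth.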 Where a SMILES comes first, the peptide text is derived from it. [ ]: non-standard residue; d: D form. pGlu = O=C1CC[CH](C(=O)O)N1

Columns and labels:
Assay in all cases: growth of human tumour cells (NCI), 48 h
[1] = test system: UACC-62 melanoma
[2] = test system: MDA-MB-231 breast
[3] = test system: OVCAR-8 ovarian
[4] = test system: COLO 205 colon
[5] = test system: UACC-257 melanoma
[6] = test system: 786-0 renal
[7] = test system: HCT-15 colon
[8] = test system: HL-60(TB) leukemia
[9] = test system: MOLT-4 leukemia
[10] = test system: NCI-H522 lung

Compound	TGI [1]	TGI [2]	TGI [3]	TGI [4]	TGI [5]	TGI [6]	TGI [7]	TGI [8]	TGI [9]	TGI [10]	GI50 [3]	GI50 [4]	GI50 [8]	GI50 [7]	GI50 [9]	GI50 [10]
CCOC(=O)c1nc2cc(C(F)(F)F)ccc2nc1Nc1ccc(F)cc1	> 100 µM	> 100 µM	> 100 µM	> 100 µM	> 100 µM	> 100 µM	> 100 µM	–	–	–	–	–	–	–	–	–
COC(=O)[C@@]12OC[C@]34C([C@@H](O)C1O)[C@@]1(C)CC(=O)C(O)=C(C)C1C[C@H]3OC(=O)[C@H](OC(=O)/C=C(/c1ccccc1)C(F)(F)F)[C@H]42 (stereo partly drawn)	7.31 µM	–	> 25 µM	21.1 µM	> 25 µM	> 25 µM	> 25 µM	1.41 µM	13.8 µM	13.7 µM	–	–	–	–	–	–
CCOC(=O)C1C[C@H]2CO[C@H](c3ccccc3)N2C1=O (stereo partly drawn)	> 100 µM	> 100 µM	> 100 µM	> 100 µM	> 100 µM	> 100 µM	> 100 µM	–	> 100 µM	> 100 µM	–	–	–	–	–	–
CCOC(=O)Cn1nnc2cc(Nc3nc4ccccc4nc3C(=O)OCC)ccc21	> 100 µM	–	> 100 µM	> 100 µM	> 100 µM	> 100 µM	> 100 µM	> 100 µM	> 100 µM	> 100 µM	–	–	–	–	–	–
NC(=O)c1ncn2c(=O)n(CCl)nnc12	> 100 µM	> 100 µM	> 100 µM	> 100 µM	> 100 µM	> 100 µM	> 100 µM	–	> 100 µM	> 100 µM	–	–	–	–	–	–
COc1c(-c2cccs2)oc2c(CC(=O)O)cccc2c1=O	> 100 µM	> 100 µM	–	> 100 µM	> 100 µM	> 100 µM	–	> 100 µM	> 100 µM	> 100 µM	–	–	–	–	–	–
C=C1C(=O)O[C@@H]2OC3(C)CCC4C(C)CCC1C42OO3 (stereo partly drawn)	6.86 µM and 5.17 µM	–	16.2 µM and 11.7 µM	12.4 µM and 10.8 µM	14.1 µM and 12 µM	–	9.95 µM and 4.02 µM	3.55 µM and 2 µM	5.96 µM and 5.53 µM	3.88 µM and 3.16 µM	3.47 µM	3.99 µM	1.18 µM	2.3 µM	2.23 µM	–
C/C(=N\NC(=O)c1cccnc1)c1cccc(/C(C)=N/NC(=O)c2cccnc2)n1.CC(=O)[O-].CC(=O)[O-].[Zn+2]	10.7 µM	–	> 39.4 µM	> 100 µM	99.7 µM	> 100 µM	> 100 µM	2.86 µM	11.4 µM	> 21.7 µM	–	0.904 µM	0.492 µM	–	–	0.134 µM
NC(=O)CCC(NC(=O)c1cccc2c(=O)c3ccccc3[nH]c12)C(=O)O (stereo not drawn)	> 100 µM	> 100 µM	> 100 µM	> 100 µM	–	> 100 µM	> 100 µM	> 100 µM	> 100 µM	> 100 µM	–	–	–	–	–	–
CC(NC(=O)C(Cc1cnc[nH]1)NC(=O)C1CCC(=O)N1)C(N)=O (stereo not drawn) ([pGlu]-His-Ala-NH2; configuration not given here)	> 100 µM	> 100 µM	> 100 µM	> 100 µM	–	> 100 µM	–	> 100 µM	> 100 µM	–	–	–	–	–	–	–
COc1ccc(N=N/C(=N/NC(=O)c2cc(Cl)ccc2C(=O)c2ccccc2)c2ccc(N(CCC#N)CCC#N)cc2C)cc1	51.8 µM	58.1 µM	46.1 µM	42.9 µM	81 µM	86.7 µM	65.7 µM	–	33.8 µM	–	–	–	–	–	–	–
COc1cc2c(cc1OC(=O)c1cc3ccccc3[nH]1)N=C[C@@H]1CCCN1C2=O	0.707 µM	2.88 µM	–	0.405 µM	0.691 µM	4.23 µM	> 34.2 µM	–	0.553 µM	1.19 µM	–	–	–	–	–	–
CC(C)(C)c1cc(/C=C/C(=O)CC(=O)/C=C/c2cc(C(C)(C)C)c(O)c(C(C)(C)C)c2)cc(C(C)(C)C)c1O	> 50 µM	> 50 µM	> 50 µM	> 50 µM	> 50 µM	> 50 µM	> 50 µM	> 50 µM	–	> 50 µM	–	–	–	–	–	–
CC1CC(=O)Nc2ccc(N=NN(C)C)cc2N1C=O (stereo not drawn)	> 100 µM	> 100 µM	> 100 µM	> 100 µM	> 100 µM	> 100 µM	> 100 µM	–	> 100 µM	> 100 µM	–	–	–	–	–	–
O=C1OC(c2ccc(Cl)cc2)(c2ccc(Cl)cc2)c2c1ccc1ccccc21	> 100 µM	–	> 100 µM	> 100 µM	> 100 µM	–	> 100 µM	> 100 µM	> 100 µM	> 100 µM	–	–	–	–	–	–
CCOc1cc2c(cc1O)CC[C@@H]1[C@@H]2CC[C@]2(C)C(OS(=O)OC3CC[C@@H]4[C@H]5CCc6cc(O)c(OCC)cc6[C@@H]5CC[C@@]34C)CC[C@@H]12 (stereo partly drawn)	30.9 µM	29.8 µM	10 µM	> 53.7 µM	> 42.8 µM	> 34.3 µM	15.3 µM	0.929 µM	> 68 µM	–	–	–	–	–	–	–
CC(O)c1cc2c(s1)C(=O)c1scc(C(C)O)c1C2=O (stereo not drawn)	0.587 µM	–	0.857 µM	3.66 µM	0.356 µM	6.39 µM	1.13 µM	> 100 µM	5.4 µM	2.56 µM	–	–	–	–	–	–
COc1cc([C@@H]2c3cc4c(cc3[C@@H](N=Cc3ccc(C(=O)O[C@@H](C(=O)O[C@H]5C[C@@]6(O)[C@@H](OC(=O)c7ccccc7)[C@@H]7[C@]8(OC(C)=O)CO[C@@H]8C[C@H](O)[C@@]7(C)C(=O)[C@H](OC(C)=O)C(=C5C)C6(C)C)[C@@H](NC(=O)c5ccccc5)c5ccccc5)cc3)[C@H]3COC(=O)[C@H]23)OCO4)cc(OC)c1O	> 50 µM	> 13.9 µM	> 50 µM	–	> 50 µM	> 50 µM	> 50 µM	0.182 µM	> 50 µM	> 50 µM	–	–	–	–	–	–
CCC/C(Cl)=N\OC(=O)Nc1ccc(F)c([N+](=O)[O-])c1	37.7 µM	36.8 µM	31.3 µM	12 µM	34.2 µM	40 µM	34.8 µM	–	11.2 µM	4.3 µM	–	–	–	–	–	–
CO[C@H]1C[C@H](n2cc(C)c(=O)[nH]c2=O)O[C@@H]1CO	> 100 µM	> 100 µM	> 100 µM	> 100 µM	> 100 µM	> 100 µM	> 100 µM	> 100 µM	> 100 µM	–	–	–	–	–	–	–
O=S(=O)(O)c1cc(Nc2ccnc3ccccc23)c2c(S(=O)(=O)O)cc(S(=O)(=O)O)cc2c1	> 100 µM	> 100 µM	> 100 µM	> 100 µM	> 100 µM	> 100 µM	> 100 µM	–	> 100 µM	> 100 µM	–	–	–	–	–	–
